Target: Beta-2 adrenergic receptor (Rattus norvegicus) (UniProt P10608)
Assay: Agonist activity at beta2-adrenergic receptor in rat L6 cells transfected with GLUT4 assessed as stimulation of skeletal muscle glucose uptake at 10 uM relative to isoprenaline
Format: functional, cell-based
Settings: not given

Beta-2 adrenergic receptor (Rattus norvegicus), sequence (P10608 whole entry, looked up): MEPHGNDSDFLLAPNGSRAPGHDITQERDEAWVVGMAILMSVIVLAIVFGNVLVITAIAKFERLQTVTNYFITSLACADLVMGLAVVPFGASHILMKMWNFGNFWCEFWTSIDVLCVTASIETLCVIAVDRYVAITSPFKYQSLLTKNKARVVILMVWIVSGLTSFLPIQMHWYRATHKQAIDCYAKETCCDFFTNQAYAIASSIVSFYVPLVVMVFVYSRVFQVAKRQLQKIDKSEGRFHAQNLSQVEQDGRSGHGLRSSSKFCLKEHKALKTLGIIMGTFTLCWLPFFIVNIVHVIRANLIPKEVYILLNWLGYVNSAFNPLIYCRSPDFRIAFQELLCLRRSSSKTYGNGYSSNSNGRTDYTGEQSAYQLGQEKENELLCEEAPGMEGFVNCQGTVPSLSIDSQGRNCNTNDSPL

Point of comparison: `CCC[C@H]1CC[C@H]([C@@H](O)c2cccc(F)c2)N1`, Activity 20%. Against it:
- CCCCNC[C@@H](O)c1cccc(F)c1 — lower, < 10%
- CCC[C@@H]1C[C@@H]([C@H](O)c2cccc(F)c2)N1 — higher, 31%
- CCC[C@H]1CCCC[C@@H]([C@H](O)c2cccc(F)c2)N1 — lower, 19%
- CCC[C@H]1CC[C@@H]([C@H](O)c2cccc(F)c2)N1 — higher, 27%
- CCCCNC[C@@H](O)c1cccc(O)c1 — lower, < 10%
- CCC[C@@H]1CCC[C@@H]([C@@H](O)c2cccc(F)c2)N1 — lower, < 10%
- CCC[C@H]1C[C@@H]([C@H](O)c2cccc(F)c2)N1 — lower, 19%
- CCC[C@H]1C[C@H]([C@@H](O)c2cccc(F)c2)N1 — higher, 37%
- CCC[C@@H]1CCCC[C@@H]([C@H](O)c2cccc(F)c2)N1 — lower, 12%
- CCC[C@H](C)NC[C@@H](O)c1cccc(O)c1 — higher, 32%
- CCC[C@H]1CCCC[C@@H]([C@@H](O)c2cccc(F)c2)N1 — higher, 39%
- CCC[C@@H]1CCCC[C@H]([C@H](O)c2cccc(F)c2)N1 — higher, 39%
- CCC[C@H]1CCCC[C@H]([C@@H](O)c2cccc(F)c2)N1 — lower, 15%
- CCC[C@@H]1CCCC[C@@H]([C@@H](O)c2cccc(F)c2)N1 — lower, < 10%

Same assay, conditions: filed as agonist

Point of comparison: `CCC[C@@H]1C[C@H]([C@H](O)c2cccc(F)c2)N1`, Activity 103%. Against it:
- CCC[C@@H]1C[C@@H]([C@@H](O)c2cccc(F)c2)N1 — lower, 47%
- CCC[C@@H](C)NC[C@@H](O)c1cccc(O)c1 — lower, 53%
- CCC[C@@H]1CC[C@H]([C@@H](O)c2cccc(F)c2)N1 — lower, 41%
- CCC[C@H]1CC[C@H]([C@H](O)c2cccc(F)c2)N1 — lower, 52%
- CCC[C@@H]1CC[C@H]([C@H](O)c2cccc(F)c2)N1 — higher, 110%
- CCC[C@@H](C)NC[C@H](O)c1cccc(O)c1 — higher, 130%
- CCC[C@H]1CCC[C@@H]([C@@H](O)c2cccc(F)c2)N1 — lower, 48%
- CCCCNC[C@H](O)c1cccc(F)c1 — lower, 57%
- CCC[C@H](C)NC[C@H](O)c1cccc(O)c1 — lower, 79%
- CCC[C@@H]1CCC[C@H]([C@H](O)c2cccc(F)c2)N1 — lower, 52%
- CCC[C@@H]1CC[C@@H]([C@@H](O)c2cccc(F)c2)N1 — lower, 57%
- CCC[C@H]1CCCC[C@H]([C@H](O)c2cccc(F)c2)N1 — lower, 47%
- CCC[C@H]1C[C@@H]([C@@H](O)c2cccc(F)c2)N1 — lower, 45%
- CCC[C@@H]1CCC[C@H]([C@@H](O)c2cccc(F)c2)N1 — lower, 50%
- CCC[C@@H]1C[C@H]([C@@H](O)c2cccc(F)c2)N1 — lower, 53%
- CCC[C@H]1CC[C@@H]([C@@H](O)c2cccc(F)c2)N1 — lower, 64%
- CCC[C@H]1C[C@H]([C@H](O)c2cccc(F)c2)N1 — lower, 72%
- CCC[C@H]1CCC[C@H]([C@@H](O)c2cccc(F)c2)N1 — lower, 56%
- CCC[C@H]1CCC[C@@H]([C@H](O)c2cccc(F)c2)N1 — lower, 67%
- CCC[C@H](C)NC[C@H](O)c1cccc(F)c1 — lower, 75%
- CCC[C@H]1CCC[C@H]([C@H](O)c2cccc(F)c2)N1 — lower, 54%
- CCC[C@@H]1CCC[C@@H]([C@H](O)c2cccc(F)c2)N1 — lower, 42%
- CCC[C@@H]1CC[C@@H]([C@H](O)c2cccc(F)c2)N1 — lower, 43%
- CCCCNC[C@H](O)c1cccc(O)c1 — lower, 63%
- CCC[C@@H]1CCCC[C@H]([C@@H](O)c2cccc(F)c2)N1 — lower, 52%
- CCC[C@@H](C)NC[C@H](O)c1cccc(F)c1 — lower, 90%

Reference: ChEMBL document CHEMBL5579790, “Development of novel β2-adrenergic receptor agonists for the stimulation of glucose uptake - The importance of chirality and ring size of cyclic amines” (Bioorg Med Chem Lett, 2024)
